# Laboratory results reported in the CombiSolv-Exp solvation set (Vermeire and Green 2021).
# Assay: solvent given as SMILES
smiles,measurement,setting,value
O=C(O)c1ccc(Cl)c([N+](=O)[O-])c1,"solvation free energy, 298 K",in C1CCOC1,-14.2 kcal/mol
same,"solvation free energy, 298 K",in C1COCCO1,-14.2 kcal/mol
same,"solvation free energy, 298 K",in CC(C)(C)O,-13.3 kcal/mol
same,"solvation free energy, 298 K",in CC(C)CCO,-13.1 kcal/mol
same,"solvation free energy, 298 K",in CC(C)CO,-12.9 kcal/mol
same,"solvation free energy, 298 K",in CC(C)O,-13.4 kcal/mol
same,"solvation free energy, 298 K",in CCC(C)O,-13.2 kcal/mol
same,"solvation free energy, 298 K",in CCCC(=O)OC,-13 kcal/mol
same,"solvation free energy, 298 K",in CCCC(C)O,-13.2 kcal/mol
same,"solvation free energy, 298 K",in CCCCCCCCCCO,-12.9 kcal/mol
same,"solvation free energy, 298 K",in CCCCCCCCO,-13.1 kcal/mol
same,"solvation free energy, 298 K",in CCCCCCCO,-13.1 kcal/mol
same,"solvation free energy, 298 K",in CCCCCCO,-13.1 kcal/mol
same,"solvation free energy, 298 K",in CCCCCO,-13.2 kcal/mol
same,"solvation free energy, 298 K",in CCCCO,-13.2 kcal/mol
same,"solvation free energy, 298 K",in CCCCOC(C)=O,-13.1 kcal/mol
same,"solvation free energy, 298 K",in CCCO,-13.3 kcal/mol
same,"solvation free energy, 298 K",in CCCOC(C)=O,-12.8 kcal/mol
same,"solvation free energy, 298 K",in CCO,-13.5 kcal/mol
same,"solvation free energy, 298 K",in CCOC(C)=O,-13.3 kcal/mol
same,"solvation free energy, 298 K",in CCOCC,-13.1 kcal/mol
same,"solvation free energy, 298 K",in CN(C)C=O,-14.1 kcal/mol
same,"solvation free energy, 298 K",in COC(C)=O,-13.4 kcal/mol
same,"solvation free energy, 298 K",in O,-9.84 kcal/mol
CSC,"solvation free energy, 298 K",in C=C(C)CC(C)(C)C,-3.04 kcal/mol
same,"solvation free energy, 298 K",in C=CCCCC,-3.07 kcal/mol
same,"solvation free energy, 298 K",in CC(C)CC(C)(C)C,-2.9 kcal/mol
same,"solvation free energy, 298 K",in CCCCCC,-2.97 kcal/mol
same,"solvation free energy, 298 K",in ClC(Cl)(Cl)Cl,-3.6 kcal/mol
same,"solvation free energy, 298 K",in ClC(Cl)Cl,-4.08 kcal/mol
same,"solvation free energy, 298 K",in O,-1.5 kcal/mol
C=CCl,"solvation free energy, 298 K",in O,-0.59 kcal/mol
CC(=O)OCCOC(C)=O,"solvation free energy, 298 K",in O,-6.34 kcal/mol
CCCOC(=O)CC,"solvation free energy, 298 K",in O,-2.45 kcal/mol
C1=CC=CCC=C1,"solvation free energy, 298 K",in O,-0.99 kcal/mol
CCOCCOC,"solvation free energy, 298 K",in ClC(Cl)(Cl)Cl,-5.85 kcal/mol
FC(F)(Cl)Cl,"solvation free energy, 298 K",in CCCCCCC,-1.8 kcal/mol
same,"solvation free energy, 298 K",in CCCCCCCC,-1.76 kcal/mol
same,"solvation free energy, 298 K",in CCCCCCCC(=O)OCC(COC(=O)CCCCCCC)OC(=O)CCCCCCC,-1.36 kcal/mol
same,"solvation free energy, 298 K",in CCCCCCCCC,-1.68 kcal/mol
same,"solvation free energy, 298 K",in CCCCCCCCO,-1.34 kcal/mol
same,"solvation free energy, 298 K",in ClC(Cl)(Cl)Cl,-1.92 kcal/mol
CCCCCN,"solvation free energy, 298 K",in CCCCCCC,-4.79 kcal/mol
same,"solvation free energy, 298 K",in O,-4.13 kcal/mol
C=CC(C)=CCCC(=C)C,"solvation free energy, 298 K",in O,-0.55 kcal/mol
CCCCC(=O)OCC,"solvation free energy, 298 K",in O,-2.49 kcal/mol
COc1cc(C)ccc1O,"solvation free energy, 298 K",in O,-5.8 kcal/mol
CCNc1nc(Cl)nc(NC(C)C)n1,"solvation free energy, 298 K",in O,-9.69 kcal/mol
C=COC(C)=O,"solvation free energy, 298 K",in CC(C)=O,-4.46 kcal/mol
same,"solvation free energy, 298 K",in CCN(CC)C(C)=O,-4.2 kcal/mol
same,"solvation free energy, 298 K",in CCNC(C)=O,-3.83 kcal/mol
same,"solvation free energy, 298 K",in CCNC=O,-3.92 kcal/mol
same,"solvation free energy, 298 K",in CN1CCCC1=O,-4.16 kcal/mol
same,"solvation free energy, 298 K",in O,-2.67 kcal/mol
same,"solvation free energy, 298 K",in O=CN1CCOCC1,-3.98 kcal/mol
Nc1cccc(Cl)c1,"solvation free energy, 298 K",in O,-5.9 kcal/mol
CC(=O)c1ccncc1,"solvation free energy, 298 K",in O,-7.62 kcal/mol
O=C(O)c1cccc([N+](=O)[O-])c1,"solvation free energy, 298 K",in C1CCOC1,-12.5 kcal/mol
same,"solvation free energy, 298 K",in C1COCCO1,-12.2 kcal/mol
same,"solvation free energy, 298 K",in CC(C)(C)O,-12.4 kcal/mol
same,"solvation free energy, 298 K",in CC(C)CCO,-11.8 kcal/mol
same,"solvation free energy, 298 K",in CC(C)CO,-12.1 kcal/mol
same,"solvation free energy, 298 K",in CC(C)O,-12.4 kcal/mol
same,"solvation free energy, 298 K",in CCC(C)O,-12.3 kcal/mol
same,"solvation free energy, 298 K",in CCCC(C)O,-12.2 kcal/mol
same,"solvation free energy, 298 K",in CCCCCCCCCCO,-11.8 kcal/mol
same,"solvation free energy, 298 K",in CCCCCCCCO,-11.9 kcal/mol
same,"solvation free energy, 298 K",in CCCCCCCO,-11.9 kcal/mol
same,"solvation free energy, 298 K",in CCCCCCO,-12 kcal/mol
same,"solvation free energy, 298 K",in CCCCCO,-12.1 kcal/mol
same,"solvation free energy, 298 K",in CCCCO,-12.2 kcal/mol
same,"solvation free energy, 298 K",in CCCCOC(C)=O,-11.6 kcal/mol
same,"solvation free energy, 298 K",in CCCO,-12.3 kcal/mol
same,"solvation free energy, 298 K",in CCO,-12.5 kcal/mol
same,"solvation free energy, 298 K",in CCOC(C)=O,-11.9 kcal/mol
same,"solvation free energy, 298 K",in CCOCC,-12.1 kcal/mol
same,"solvation free energy, 298 K",in CO,-12.7 kcal/mol
same,"solvation free energy, 298 K",in COC(C)=O,-12.1 kcal/mol
same,"solvation free energy, 298 K",in O,-9.45 kcal/mol
Clc1ccc2c(c1)Oc1ccccc1O2,"solvation free energy, 298 K",in O,-3.1 kcal/mol
COC(=O)C(F)(F)F,"solvation free energy, 298 K",in O,-1.1 kcal/mol
Clc1cc(-c2c(Cl)cc(Cl)c(Cl)c2Cl)c(Cl)c(Cl)c1Cl,"solvation free energy, 298 K",in O,-4.61 kcal/mol
CCCCN(C)N=O,"solvation free energy, 298 K",in CC(C)CC(C)(C)C,-5.73 kcal/mol
same,"solvation free energy, 298 K",in O,-5.37 kcal/mol
CCCCC[N+](=O)[O-],"solvation free energy, 298 K",in O,-2.82 kcal/mol
O=C(O)c1cccc2ccccc12,"solvation free energy, 298 K",in C=CCCCCCCC=C,-9.51 kcal/mol
same,"solvation free energy, 298 K",in C=CCCCCCCCCCCCCCC,-9.45 kcal/mol
same,"solvation free energy, 298 K",in O,-9.04 kcal/mol
COc1ccccc1N,"solvation free energy, 298 K",in O,-6.12 kcal/mol
Cc1cc(Cl)c(Cl)cc1Cl,"solvation free energy, 298 K",in CCCCCCCCC=CCCCCCCCC(=O)OCC(COC(=O)CCCCCCCC=CCCCCCCCC)OC(=O)CCCCCCCC=CCCCCCCCC,-7.99 kcal/mol
same,"solvation free energy, 298 K",in O,-1.05 kcal/mol
OCCCc1ccccc1,"solvation free energy, 298 K",in O,-6.92 kcal/mol
Clc1cc2c(cc1Cl)Oc1c(Cl)c(Cl)c(Cl)c(Cl)c1O2,"solvation free energy, 298 K",in O,-3.71 kcal/mol
CCCCCCCCCCCCCCCC,"solvation free energy, 298 K",in CCO,-8.9 kcal/mol
same,"solvation free energy, 298 K",in ClC(Cl)(Cl)Cl,-11.4 kcal/mol
same,"solvation free energy, 298 K",in ClCCCl,-9.66 kcal/mol
same,"solvation free energy, 298 K",in O=Cc1ccco1,-7.93 kcal/mol
same,"solvation free energy, 298 K",in OCCOCCO,-5.77 kcal/mol
CI,"solvation free energy, 298 K",in Brc1cccc2ccccc12,-3.3 kcal/mol
same,"solvation free energy, 298 K",in CC(=O)N(C)C,-3.63 kcal/mol
same,"solvation free energy, 298 K",in CC(=O)OCc1ccccc1,-3.34 kcal/mol
same,"solvation free energy, 298 K",in CC(C)=O,-3.56 kcal/mol
same,"solvation free energy, 298 K",in CC(C)CC(C)(C)C,-2.94 kcal/mol
same,"solvation free energy, 298 K",in CCC(C)=O,-3.48 kcal/mol
same,"solvation free energy, 298 K",in CCCCCCC,-3.03 kcal/mol
same,"solvation free energy, 298 K",in CCCCCCCC,-2.99 kcal/mol
same,"solvation free energy, 298 K",in CCCCCCCCO,-2.95 kcal/mol
same,"solvation free energy, 298 K",in CCCCCl,-3.44 kcal/mol
same,"solvation free energy, 298 K",in CCCCO,-3.04 kcal/mol
same,"solvation free energy, 298 K",in CCO,-2.99 kcal/mol
same,"solvation free energy, 298 K",in CCOC(C)=O,-3.46 kcal/mol
same,"solvation free energy, 298 K",in CN1CCCC1=O,-3.77 kcal/mol
same,"solvation free energy, 298 K",in CN(C)C=O,-3.49 kcal/mol
same,"solvation free energy, 298 K",in CO,-3.21 kcal/mol
same,"solvation free energy, 298 K",in Cc1ccc(C)cc1,-3.47 kcal/mol
same,"solvation free energy, 298 K",in ClC(Cl)(Cl)Cl,-3.49 kcal/mol
same,"solvation free energy, 298 K",in ClC(Cl)Cl,-3.78 kcal/mol
same,"solvation free energy, 298 K",in ClCCCl,-3.62 kcal/mol
same,"solvation free energy, 298 K",in ClCCl,-3.83 kcal/mol
same,"solvation free energy, 298 K",in N#Cc1ccccc1,-3.41 kcal/mol
same,"solvation free energy, 298 K",in O,-0.89 kcal/mol
same,"solvation free energy, 298 K",in O=C1CCCCC1,-3.58 kcal/mol
same,"solvation free energy, 298 K",in c1ccc2ncccc2c1,-3.4 kcal/mol
